Data: patent US20070048329A1, “Epstein barr virus peptide epitopes, polyepitopes and delivery system therefor” (priority 2002, published 2007)
Entries after “also recorded” stand apart in the source; their conditions may differ.

B1: SEQ ID NO:81: polyepitope protein of thirteen contiguous LMP1 and LMP2 CTL epitopes (protein)
chain: MPYLFWLAAISSCSSCPLSKITYGPVFMCLRRRWRRLTVLLSAWILTALTAGFLIFLCLGGLLTMVVMSNTLLSAWIEDPPFNSLYLLEMLWRLYLQQNWWTLALLVLYSFALIALYLQQNW

Tests used:
HLA A2 = HLA A2 (Homo sapiens, UniProt P04439, D140Y/D185E/D98H/E176V/E277Q/G131W/G231S/I119V/I121R/I166T/I218V/L300P/L318F/N151K/N90K/P208A/P217A/Q86G/Q94H/R138H/R169H/T345S); test: MHC stabilisation assay on T2 cells; format: cell-based; design: endogenous in cells; host or cells: T2 (.174×CEM.T2), TAP-negative B×T hybrid cell line; details: 14-16 h at 26° C. then 2-3 h at 37° C., FACS
Method: FIG. 7: A: CTL recognition of variant and prototypic BLA A2-restricted LMP1 epitope […]. PHA blasts were sensitized with serial dilutions of each of the peptides and then exposed to either the […]-specific CTL clone, SB7. B: MHC stabilization analysis on T2 cells using variant and prototypic HLA A2-restricted LMP1 epitope. T2 cells were initially incubated with 200 μl of each of the peptides (10 μg/ml) for 14-16 h at 26° C. followed by incubation at 37° C. for 2-3 h. HLA A2 expression on these cells was analysed by FACS using HLA A2-specific monoclonal antibody.
To assess MHC binding by the HLA A2-restricted LMP1 epitope variants from EBV isolates, T2 cells (2×10^5) were incubated with 200 μl of each of the peptides (100 μg/ml) at 26° C. for 14-16 h, followed by incubation at 37° C. for 2-3 h. After the incubations, HLA A2 expression was measured by FACS using a specific monoclonal antibody (HB82, ATCC).

[1] = system: peptide-sensitised PHA blasts and LCLs; test: 51Cr-release cytotoxicity assay with peptide-specific CTL lines and clones; format: cell-based, human; details: serial dilutions of peptide, compared with wild-type YLLEMLWRL, CTL clone SB7
Method: Polyclonal CTL lines and LMP1-specific CTL clones were established according to previously published methods (Moss 1988; Khanna 1998). Briefly, 2×10^6 PBMCs were stimulated with 1×10^6 autologous lymphocytes (responder to stimulator ratio of 2:1) pulsed with 10 μM peptide for 1 hr in 2 ml in a 24-well plate. After 3 days, culture medium with IL-2 (10 U/ml) was added and the cells were further expanded. These lymphocytes were restimulated on day 7 with γ-irradiated (8000 rad) autologous LCLs. After 10 days in culture medium, the cells were used as polyclonal effectors in a standard ^51Cr-release assay against peptide-sensitised autologous PHA blasts.
To generate peripheral blood CTL clones specific for the LMP1 derived peptides, PBMCs of healthy donors were reactivated (2×10^6) PBMCs with peptide-sensitised (10 ug of peptide/ml) autologous lymphocytes (1×10^6) in 2 ml wells of a 24-well plate in culture medium. After 3 days, the cells were seeded onto 0.35% agarose and maintained in T cell growth medium containing rIL2 (50 IU/ml). After another 3 days, growing clones were transferred to 96-well round-bottom tissue culture plates (Life Technologies) and cultured in T cell growth medium containing rIL2 (50-100 IU/ml).
Target cells were pre-sensitized with synthetic peptide epitopes and then incubated with ^51Cr for 90 min. Following incubation, these cells were washed in growth medium and used as targets in a standard 5 h ^51Cr-release assay (Moss, 1988)
To further characterize the minimal T cell epitopes defined by ELISPOT assays we generated polyclonal and clonal CTL lines specific for these epitopes. PBMCs from the healthy seropositive donors were stimulated with synthetic peptide epitopes and the CTL clones or polyclonal lines were established and tested in standard ^51Cr-release assays. The […] peptide-specific CTL clones were generated using initial stimulation with peptide-sensitized autologous PBMC followed by continuous restimulation with irradiated autologous LCL. These CTL clones were screened for […]-specific CTL activity by ^51Cr release assays against peptide-sensitised autologous and allogeneic PHA blast and LCLs. […] Titration of this minimal epitope on autologous PHA blasts further confirmed the fine specificity of this CTL clone (FIG. 5B).

CD8+ CTL = test: Immunization of HLA A2/K^b transgenic mice, epitope-specific T cell responses; details: mouse, in vivo
Text: HLA A2/K^b transgenic mice used in this study have been described elsewhere (Theobald 1997). These mice express a chimeric class I molecule composed of the alpha 1 & 2 domains of the human A*0201 allele and the alpha 3 domains of the mouse H-2K^b class I molecules. These mice were vaccinated intraperitoneally with 10^8 plaque forming units of recombinant Ad5-LMPpoly or a control adenovirus. After 3 weeks, splenocytes were harvested and tested for epitope-specific T cell responses. These T cell responses were assessed using ELISPOT and in vivo CTL assays as herein described.

Molecule	HLA A2 expression on T2 cells (HLA A2 binding) (HLA A2)	sensitizing autologous PHA blast to lysis by YLLEMLWRL-specific CTL clone [1]	CD8+ CTL responses in polyepitope-immunized mice (CD8+ CTL)
YFLEILWRL [variant of […] dominant in South-East Asian EBV isolates]	unable to rescue HLA A2 expression; also recorded: significant loss in HLA A2 binding	poorly recognized	
YLLEILWRL	significantly increased MHC expression on T2 cells	recognized as efficiently as the wild-type epitope	
B1			induce CD8+CTL responses
